Test results taken from patent US8097242B2, “Target CA125 peptides for cancer immunotherapy” (The Board of Trustees of the University of Arkansas, priority 2006, dated 2012).
“Also recorded” adds a separate entry of the source. Where no end group is shown, it is not given here.

Tests used:
[1] = test system: autologous primary ovarian cancer cells endogenously expressing CA125
Method: Cytotoxicity was tested in a 5 hr ^51Cr-release assay against autologous primary ovarian cancer target cells and unpulsed autologous LCL at different Effector cell: Target cell ratios (E:T). Blocking monoclonal antibody (MAb) against non-polymorphic HLA A, B, and C determinants (W6/32) was also used.
Cytotoxicity was tested in a 5 hr 5 Cr-release assay against autologous primary ovarian cancer target cells and autologous LCL at a 20:1 ratio. Blocking monoclonal antibody against non-polymorphic HLA A, B, and C determinants (W6/32) was also used.
Briefly, viable tumor tissue was mechanically minced in RPMI 1640 to portions no larger than 1-3 mm^3 and washed twice with RPMI 1640. The portions of minced tumor were then placed into 250 ml flasks containing 30 ml of enzyme solution [0.14% collagenase Type 1 and 0.01% DNAse 2000 KU/mg; (Sigma)] in RPMI 1640, and incubated on a magnetic stirring apparatus overnight at 4° C. Enzymatically dissociated tumor was then filtered through 150 μm nylon mesh to generate a single cell suspension. The resultant cell suspension was then washed twice in RPMI 1640 plus 10% FBS (fetal bovine serum). Purity of fresh tumor cultures was tested by morphology, immunochemistry staining and/or flow cytometry with antibodies against cytokeratins. Only cell lines containing more than 99% tumor cells were evaluated in cytotoxicity assays. […]

[2] = test system: autologous primary ovarian cancer cells endogenously expressing TADG-12; experiment: 51Cr-release cytotoxicity against autologous ovarian cancer cells expressing TADG-12; type: cell-based, human
Method: FIG. 9. […] A representative experiment from patient 1 is shown.
FIG. 10. CD8^+ CTL recognition of autologous ovarian cancer cells (i.e., K ova) endogenously expressing TADG-12 by TADG-12 P5-stimulated lymphocytes. […] A representative experiment from patient 1 is shown.
Cryopreserved peripheral blood leukocytes (PBL) from patient # 3, harboring advanced stage ovarian cancer, have been used for the generation of DC. Monocyte-derived DC were cultured in AIM-V (Gibco-BRL) supplemented with GM-CSF and IL-4 (1). After 5 days' culture, DC maturation was induced by addition of TNFα, IL-1β and PGE2 (1). Mature DC were pulsed for 1-2 hr at 37° C. with 50 μg/ml of all 8 TADG-12-derived peptides, and washed twice before culture with PBL at a responder:stimulator ratio of 30:1. The culture medium was AIM-V plus 5% human AB serum (Gemini Bioproducts). No IL-2 was added. After 7 days, responder T cells were collected and restimulated with peptide-pulsed DC. For the second and third DC stimulations, the medium was supplemented with 50-100 U/ml IL-2, and the culture period extended to 14 days. After the third cycle, CD8+ T cells were recovered by positive selection with anti-CD8 magnetic beads (Dynal). Subsequent restimulations (passages) of CD8+ T cells used peptide-loaded autologous PBL as antigen-presenting cells.

[3] = test system: primary ovarian cancer cells; experiment: Flow cytometry of MHC class I, HLA-A2 and ICAM-1 on primary ovarian tumor cells after IFN-γ; type: cell-based, human; settings: 500 U/ml for 48 hrs
Method: Briefly, tumor cells were harvested with 0.25 percent trypsin in HBBS (Gibco, Grand Island, N.Y.) and washed once in complete medium. Cell suspensions were counted and distributed into 12×75 mm tubes at 5×10^5 cells/tube. Mouse monoclonal antibodies [anti-HLA class I (MAb W6/32); anti-HLA-A2 (BB7-2) and anti-HLA Class II (MAb CR3-43) Accurate Chemical and Scientific Corporation, Westbury, N.Y.); and anti-ICAM-1 (MAb LB-2; Becton Dickinson)] were diluted in cold assay buffer (PBS, pH 7.2, supplemented with 0.1% FCS) and added in a 50-μl volume. A mouse IgG preparation (MAb IgG2a; Becton Dickinson) was used as negative control. Tumor cells were analyzed by FACScan (Becton Dickinson) utilizing Cell Quest software (Becton Dickinson).
In contrast, MHC class II molecule expression was negligible in all 3 primary tumor cell lines tested (data not shown).

[4] = test system: primary ovarian cancer cell lines; experiment: Real time PCR of CA125 and TADG-12 mRNA after IFN-γ; type: cell-based, human; settings: after exposure to IFN-γ, data not shown
Method: Importantly, because tissue digestion and prolonged in vitro cell culture may potentially alter CA125 and TADG-12 antigen expression, primary ovarian cancer cell lines were evaluated before and after several in vitro passages for CA125 and TADG-12 expression by real time PCR and flow cytometry. Briefly, RNA extraction was performed on autologous primary ovarian cancer cell lines when tumor cells were 50% to 80% confluent after no passages (i.e., P0) and up to a maximum of twenty passages in vitro. RNA isolation was performed using TRIzol Reagent (Invitrogen) according to the manufacturer's instructions. To verify integrity, 4 μg of RNA from each sample was run in 1% agarose gel using 18S+28S Ribosomal RNA (Sigma) as positive control. Briefly, five μg of total RNA from each sample was reverse-transcribed using SuperScript III first strand cDNA synthesis (Invitrogen). […] Quantitative-RT-PCR was performed with an ABI Prism 7000 Sequence Analyzer using the manufacturer's recommended protocol (Applied Biosystems, Foster City, Calif.) to evaluate expression of CA125 and TADG-12 in primary tumors. […] Primers specific for 18S ribosomal RNA and empirically determined ratios of 18S competimers (Applied Biosystems) were used to control for the amount of cDNA generated from each sample. […]

[5] = test system: autologous LCL pulsed with CA125-derived peptides; experiment: 51Cr-release cytotoxicity of peptide-specific CD8+ T cells against LCL pulsed with CA125 peptides; type: cell-based, human; settings: CD8+ T cells from a healthy donor, autologous LCL pulsed with 50 μg/ml peptide, 5 hour 51Cr-release
Method: Dendritic cells were loaded with the CA125 peptides of Table 3 and used to amplify CD8+ T cells cytotoxic against cells displaying the cognate peptide as described in Example 5. The amplified CD8+ T cell lines were tested for cytoxicity against autologous lymphoblastoid cell lines (LCL) pulsed with the CA125 peptide used to amplify the T cells. Cytotoxicity was tested in a 5 hour ^51Cr-release assay against autologous LCL and autologous LCL pulsed with 50 μg/ml peptide (5, 6). […] Natural killer (NK)-sensitive K562 cells were not lysed (data not shown).

autologous unpulsed LCL = experiment: 51Cr-release cytotoxicity against unpulsed autologous LCL; type: cell-based, human; settings: CTL stimulated by CA125 P10-pulsed autologous DC

## FMVPFTLNFT [P11 CA125/10, FMVPfTLNFT]
[1]
  cytotoxicity against autologous primary ovarian cancer cells endogenously expressing CA125: Unlike peptides 7, 11 and 12, only the CA125 YTLDrDSLYV (SEQ ID NO:10) peptide (P10) was found to be reliably cytotoxic

## IFN-γ: Cytokine to which primary ovarian tumor cells were exposed (500 U/ml for 48 hrs)
[2]; exposure for 48 hrs
  effect of IFN-γ exposure of tumor cells on recognition and killing by peptide-specific CTL: further increased recognition and killing of autologous ovarian cancer cells; also recorded: significantly increase the cytotoxic activity
[3]
  MHC class I, HLA-A2 and ICAM-1 expression levels: markedly up-regulate
[4]
  expression levels of CA125 and TADG-12 mRNA: did not detect any change

## LLMPfTLNFT (LLMPFTLNFT; listed as Homo sapiens) [P9 CA125/10]
[5]
  % Lysis: 0%

## TLLVTGTSRV [P12 CA125/10, TLLVtGTSRV]
[1]
  cytotoxicity against autologous primary ovarian cancer cells endogenously expressing CA125: Unlike peptides 7, 11 and 12, only the CA125 YTLDrDSLYV (SEQ ID NO:10) peptide (P10) was found to be reliably cytotoxic

## YLPKSWTIQV [P5 TADG12/10, YLPKsWTIQV]
[2]; TADG-12 peptides, CTL stimulated by peptide-pulsed DC, 5 hr 51Cr-release, listed as SEQ ID NO: 17
  cytotoxicity against autologous primary ovarian cancer cells endogenously expressing TADG-12: consistently lyse autologous ovarian tumor cells expressing TADG-12

## YTLDRDSLYV [P10 CA125/10, YTLDrDSLYV]
Autologous unpulsed LCL
  cytotoxicity against autologous unpulsed LCL: not against autologous unpulsed LCL
